Where two headings read alike, the source gives them in different places.
Experiments:
mushroom tyrosinase = conditions: cited from earlier work
tyrosinase [1] = experiment: Tyrosinase inhibitory assay (colorimetric, L-DOPA substrate); assay type: biochemical; conditions: for IC50: read-out: IC50 (µM) ± RSD
Description: The tyrosinase inhibitory activities of derivatives were performed according to the previously reported procedures[26],[27]. All the test samples were first dissolved in DMSO at dilution to the required final concentrations. Initially, in a 96-well microplate, 10 µl of test samples were added to 160 µl of phosphate buffer (pH = 6.8), and then 10 µl tyrosinase was added. After the mixture was pre-incubated at 28 °C for 20 min, 20 µl of L-DOPA solution was added. DMSO without test compounds was used as the control, and kojic acid was used as a positive control. After 8 min incubation absorbance of samples was measured at 490 nm. Each assay was conducted as three separate replicates.

skin melanoma cells = tested on: skin melanoma cells; parameters: method as in PMID 34140181; conditions: 8 µM; cited from earlier work
tyrosinase [2] = experiment: Enzyme kinetic study (Lineweaver–Burk, L-DOPA); assay type: biochemical
Source text: The Lineweaver–Burk reciprocal plot was provided by plotting 1/V against 1/[S] at variable concentrations of the L-DOPA.

**Q.** With `O=C(N/N=C/c1ccc(Cl)cc1)c1ccc(O)cc1` [Compound E] as the compound, how does the IC50 (mushroom tyrosinase) read?
**A.** 7.57 ± 0.01 µM

**Q.** Which “% inhibition at 100 µM” value (tyrosinase [1]) does the source give for `O=C(Cn1cc(COc2ccc(C=NNC(=O)c3cc(O)cc(O)c3)cc2)nn1)NCc1ccccc1` [Compound 11n, N-benzyl-2-(4-((4-((2-(3,5-dihydroxybenzoyl)hydrazineylidene)methyl)phenoxy)methyl)-1H-1,2,3-triazol-1-yl)acetamide] here?
**A.** 17.48 ± 1.79%

**Q.** For `O=C(Cn1cc(COc2ccc(C=NNC(=O)c3cc(O)cc(O)c3)cc2)nn1)Nc1ccc(Br)cc1` [Compound 11e, N-(4-bromophenyl)-2-(4-((4-((2-(3,5-dihydroxybenzoyl)hydrazono)methyl)phenoxy)methyl)-1H-1,2,3-triazol-1-yl)acetamide], which “% inhibition at 100 µM” value (tyrosinase [1]) is on record?
**A.** 14.13 ± 2.31%

**Q.** Which IC50 (mushroom tyrosinase) does the source give for `CCOc1cc(/C=N/NC(=O)c2ccc(O)c(OC)c2)ccc1O` [Compound C] here?
**A.** 1.58 µM

**Q.** Which “% inhibition at 100 µM” value (tyrosinase [1]) does the source give for `Cc1ccc(NC(=O)Cn2cc(COc3ccc(C=NNC(=O)c4cc(O)cc(O)c4)cc3)nn2)cc1` [Compound 11j, 2-(4-((4-((2-(3,5-dihydroxybenzoyl)hydrazono)methyl)phenoxy)methyl)-1H-1,2,3-triazol-1-yl)-N-(p-tolyl)acetamide] here?
**A.** 15.22 ± 4.33%

**Q.** For `O=C(Cn1cc(COc2ccc(C=NNC(=O)c3cc(O)cc(O)c3)cc2)nn1)Nc1ccc(F)cc1` [Compound 11c, 2-(4-((4-((2-(3,5-dihydroxybenzoyl)hydrazono)methyl)phenoxy)methyl)-1H-1,2,3-triazol-1-yl)-N-(4-fluorophenyl)acetamide], which “% inhibition at 100 µM” value (tyrosinase [1]) is on record?
**A.** 32.28 ± 2.76%

**Q.** With `Cc1cc([N+](=O)[O-])ccc1NC(=O)Cn1cc(COc2ccc(C=NNC(=O)c3cc(O)cc(O)c3)cc2)nn1` [Compound 11i, 2-(4-((4-((2-(3,5-dihydroxybenzoyl)hydrazineylidene)methyl)phenoxy)methyl)-1H-1,2,3-triazol-1-yl)-N-(2-methyl-4-nitrophenyl)acetamide] as the compound, how does the “% inhibition at 100 µM” value (tyrosinase [1]) read?
**A.** 15.05 ± 2.29%

**Q.** For `O=C(Cn1cc(COc2ccc(C=NNC(=O)c3cc(O)cc(O)c3)cc2)nn1)Nc1ccc(Cl)cc1Cl` [Compound 11f, N-(2,4-dichlorophenyl)-2-(4-((4-((2-(3,5-dihydroxybenzoyl)hydrazineylidene)methyl)phenoxy)methyl)-1H-1,2,3-triazol-1-yl)acetamide], which “% inhibition at 100 µM” value (tyrosinase [1]) is on record?
**A.** 19.54 ± 2.48%

**Q.** For `Clc1ccc(Cn2cc(COc3ccc(-c4nc5ccccc5[nH]4)cc3)nn2)cc1Cl` [Compound F], which IC50 (mushroom tyrosinase) is on record?
**A.** 9.42 µM

**Q.** What does the source list for `NC(=S)N/N=C/c1ccc(OCc2cn(CC(=O)NCc3ccccc3)nn2)cc1` [Compound H]?
**A.** IC50 (mushroom tyrosinase; L-DOPA as substrate): 0.17 µM; IC50 (mushroom tyrosinase; L-tyrosine as substrate): 0.11 µM; melanin content (skin melanoma cells): 39.8%

**Q.** With `O=C(/C=C/c1ccc(O)cc1)c1cc(O)cc(O)c1` [A] as the compound, how does the IC50 (mushroom tyrosinase) read?
**A.** 8.1 µM

**Q.** For `O=C(Cn1cc(COc2ccc(C=NNC(=O)c3cc(O)cc(O)c3)cc2)nn1)Nc1ccc([N+](=O)[O-])cc1` [Compound 11h, 2-(4-((4-((2-(3,5-dihydroxybenzoyl)hydrazineylidene)methyl)phenoxy)methyl)-1H-1,2,3-triazol-1-yl)-N-(4-nitrophenyl)Acetamide], which “% inhibition at 100 µM” value (tyrosinase [1]) is on record?
**A.** 22.74 ± 2.86%

**Q.** With `Cc1cccc(C)c1NC(=O)Cn1cc(COc2ccc(C=NNC(=O)c3cc(O)cc(O)c3)cc2)nn1` [Compound 11k, 2-(4-((4-((2-(3,5-dihydroxybenzoyl)hydrazineylidene)methyl)phenoxy)methyl)-1H-1,2,3-triazol-1-yl)-N-(2,6-dimethylphenyl)Acetamide] as the compound, how does the “% inhibition at 100 µM” value (tyrosinase [1]) read?
**A.** 38.59 ± 0.74%

**Q.** With `O=C(Cn1cc(COc2ccc(C=NNC(=O)c3cc(O)cc(O)c3)cc2)nn1)Nc1ccccc1` [Compound 11a, 2-(4-((4-((2-(3,5-dihydroxybenzoyl)hydrazineylidene)methyl)phenoxy)methyl)-1H-1,2,3-triazol-1-yl)-N-phenylacetamide] as the compound, how does the “% inhibition at 100 µM” value (tyrosinase [1]) read?
**A.** 53.87 ± 1.53%

**Q.** And the IC50 (tyrosinase [1])?
**A.** 90.5 µM

**Q.** For `O=C(Cn1cc(COc2ccc(C=NNC(=O)c3cc(O)cc(O)c3)cc2)nn1)Nc1c(Cl)cccc1Cl` [Compound 11g, N-(2,6-dichlorophenyl)-2-(4-((4-((2-(3,5-dihydroxybenzoyl)hydrazineylidene)methyl)phenoxy)methyl)-1H-1,2,3-triazol-1-yl)Acetamide], which “% inhibition at 100 µM” value (tyrosinase [1]) is on record?
**A.** 27.87 ± 1.83%

**Q.** Which “% inhibition at 100 µM” value (tyrosinase [1]) does the source give for `O=C(Cn1cc(COc2ccc(C=NNC(=O)c3cc(O)cc(O)c3)cc2)nn1)Nc1ccc(Cl)cc1` [Compound 11d, N-(4-chlorophenyl)-2-(4-((4-((2-(3,5-dihydroxybenzoyl)hydrazineylidene)methyl)phenoxy)methyl)-1H-1,2,3-triazol-1-yl)Acetamide] here?
**A.** 22.82 ± 0.53%

**Q.** Which IC50 (mushroom tyrosinase) does the source give for `CC(=O)c1cccc(NC(=O)COC(=O)/C=C/c2ccc(O)cc2O)c1` [D] here?
**A.** 0.002 µM

**Q.** Which “% inhibition at 100 µM” value (tyrosinase [1]) does the source give for `O=c1cc(CO)occ1O` [Kojic acid, reference compound] here?
**A.** 23.64 ± 2.56%

**Q.** With `CCc1ccc(NC(=O)Cn2cc(COc3ccc(C=NNC(=O)c4cc(O)cc(O)c4)cc3)nn2)cc1` [Compound 11l, 2-(4-((4-((2-(3,5-dihydroxybenzoyl)hydrazineylidene)methyl)phenoxy)methyl)-1H-1,2,3-triazol-1-yl)-N-(4-ethylphenyl)acetamide] as the compound, how does the “% inhibition at 100 µM” value (tyrosinase [1]) read?
**A.** 55.52 ± 4.63%

**Q.** And the IC50 (tyrosinase [1])?
**A.** 87.5 µM

**Q.** For `O=C(Cn1cc(COc2ccc(C=NNC(=O)c3cc(O)cc(O)c3)cc2)nn1)Nc1ccccc1F` [Compound 11b, 2-(4-((4-((2-(3,5-dihydroxybenzoyl)hydrazono)methyl)phenoxy)methyl)-1H-1,2,3-triazol-1-yl)-N-(2-fluorophenyl)acetamide], which “% inhibition at 100 µM” value (tyrosinase [1]) is on record?
**A.** 22.99 ± 1.20%

**Q.** With `COc1ccc(NC(=O)Cn2cc(COc3ccc(C=NNC(=O)c4cc(O)cc(O)c4)cc3)nn2)cc1` [Compound 11m, 2-(4-((4-((2-(3,5-dihydroxybenzoyl)hydrazineylidene)methyl)phenoxy)methyl)-1H-1,2,3-triazol-1-yl)-N-(4-methoxyphenyl)acetamide] as the compound, how does the “% inhibition at 100 µM” value (tyrosinase [1]) read?
**A.** 78.81 ± 7.35%

**Q.** What about the IC50 (tyrosinase [1]) of the same compound?
**A.** 55.4 µM

**Q.** What about the mode of inhibition (tyrosinase [2]; Lineweaver–Burk plot) of the same compound?
**A.** competitive

**Q.** What about the Ki (tyrosinase [2]; secondary plot of Km vs inhibitor concentration, L-DOPA, read-out: dissociation constant Ki) of the same compound?
**A.** 52.8 µM

**Q.** With `O=C1NC(=O)C(=Cc2ccc(OCc3cn(Cc4ccccc4Cl)nn3)cc2)C(=O)N1` [Compound G] as the compound, how does the IC50 (mushroom tyrosinase) read?
**A.** 29.9 µM

Reference: paper PMC10794188, “Structure-based development of 3,5-dihydroxybenzoyl-hydrazineylidene as tyrosinase inhibitor; in vitro and in silico study” (Scientific Reports, 2024)
